Assay results taken from ChEMBL document CHEMBL1126364, “A new class of leukotriene biosynthesis inhibitors: The discovery of MK0591” (Bioorg Med Chem Lett, 1992).
Values belong to the compound of their own block, whether it stands above or below them.

Experiments:
Homo sapiens [1] = species: Homo sapiens; experiment: Leukotriene synthesis inhibition activity in the Human PMN assay; format: functional, organism-based
[2] = biological target: T1, Arachidonate 5-lipoxygenase-activating protein (Homo sapiens, UniProt P20292); experiment: The compound was tested for the inhibition of binding of [125I]- L- 691,831 binding to 5-lipoxygenase activating protein (FLAP)
T1 sequence (P20292 whole entry): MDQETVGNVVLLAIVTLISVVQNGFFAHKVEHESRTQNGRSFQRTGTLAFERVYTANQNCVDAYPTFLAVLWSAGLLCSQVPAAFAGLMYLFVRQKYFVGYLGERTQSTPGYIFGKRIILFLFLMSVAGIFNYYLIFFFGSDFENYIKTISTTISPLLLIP

Homo sapiens [3] = species: Homo sapiens; experiment: Leukotriene synthesis inhibition activity in the Human whole blood assay; format: functional, organism-based
[4] = biological target: T1, Arachidonate 5-lipoxygenase-activating protein; experiment: The compound was tested for the inhibition of binding of [125I]- L- 691,831 binding to 5-lipoxygenase activating protein

Compound: O=C(O)CSC(CCCc1ccc(Cl)cc1)c1ccc(OCc2ccc3ccccc3n2)cc1 (single isomer, unassigned; (+))
IC50 (Homo sapiens [1]): 5 nM

Compound: CC(C)c1ccc2c(c1)c(SC(C)(C)C)c(CC(C)(C)C(=O)O)n2Cc1ccc(Cl)cc1
IC50 [2]: 23 nM | IC50 (Homo sapiens [3]): 2100 nM | IC50 (Homo sapiens [1]; Homo sapiens): 3 nM

Compound: CC(C)(C)Sc1c(CC(C)(C)C(=O)O)n(Cc2ccc(Cl)cc2)c2ccc(OCc3ccc4ccccc4n3)cc12 [QUIFLAPON]
IC50 [4]: 2 nM | IC50 (Homo sapiens [3]): 500 nM | IC50 (Homo sapiens [1]; Homo sapiens): 3 nM

Compound: Cc1c(CC(C)(C)C(=O)O)n(Cc2ccc(Cl)cc2)c2ccc(OCc3ccc4ccccc4n3)cc12
IC50 (Homo sapiens [1]; Homo sapiens): 3 nM

Compound: c1ccc(COCC(OCc2ccccc2)c2ccc(OCc3ccc4ccccc4n3)cc2)cc1 (stereo not given)
IC50 (Homo sapiens [1]; Homo sapiens): 30 nM

Compound: O=C(O)CSC(CCCc1ccc(Cl)cc1)c1ccc(OCc2ccc3ccccc3n2)cc1 (stereo in doubt; 1)
IC50 [2]: 122 nM | IC50 (Homo sapiens [3]): > 22000 nM | IC50 (Homo sapiens [1]): 20 nM

Continued, values first:

IC50 (Homo sapiens [1]; Homo sapiens): 870 nM
Compound: COc1ccc2c(c1)c(C)c(CC(C)(C)C(=O)O)n2Cc1ccc(Cl)cc1

IC50 [2]: 4 nM
Compound: O=C(O)CSC(CCCc1ccccc1)(CCc1ccccc1)c1ccc(OCc2ccc3ccccc3n2)cc1 (stereo not given)

IC50 (Homo sapiens [1]): 10 nM
Compound: O=C(O)CSC(CCCc1ccc(Cl)cc1)c1ccc(OCc2ccc3ccccc3n2)cc1 (single isomer, unassigned; (-))
